Reference: article PMC6397180 (Scientific Reports, 2019)
Where “and” joins values, the source holds several entries; their conditions need not be identical. Equal entries are not always repeated.

Assays:
[1] = tested on: C20 microglial cells; assay: TNFα protein in supernatants of Tat-treated microglia (Luminex cytokine detection assay); format: cell-based, human; conditions: C20 microglia exposed 24 h to equivalent inputs of Tat-containing HeLa media
Experimental: (§1) C20 microglia were exposed for 24 h, to equivalent inputs of HeLa cell media containing Tat protein (Tat-B*, Tat-B* R57S, Tat-C or Tat-C S57R or empty vector) as described above for cytokine expression. As a control, spent media of HeLa cells transfected with an empty pcDNA 3.1 construct was used. Approximately 50, 000 cells containing a mixture of human fetal neurons and glia plated on 35 mm MatTek plates were treated with 200 µl of spent media from Tat-exposed microglial cultures for 30 h.

[2] = tested on: h-Hu_C20 human microglial cells; assay: qRT-PCR of cytokine gene expression in C20 cells exposed to Tat; format: cell-based; conditions: equivalent levels of Tat proteins applied; compared with position 57 variant of the same clade
Experimental: We transfected 2 × 10^6 HeLa cells with pEGFP, pcDNA 3.1 and the plasmids expressing the four Tat variants. At 24 hours post transfection, media were collected and Tat ELISA performed to determine the amount of Tat present. C20 microglia (2 × 10^6) were incubated with equal amounts of Tat media for 24 h. PMA (5 ng) or LPS (5 ng) were also included in separate wells as controls. C20 cells were washed with PBS, treated with trypsin, pelleted by centrifugation at 500 × g for 10 minutes, and total cell RNA isolated using an RNeasy Kit (Qiagen). RNA was reverse transcribed in a first-strand cDNA synthesis reaction (GoScript, Promega), using oligo dT primers. The cDNA was diluted to 100 ng per 3 μL in each reaction well, and combined with 2x Taqman Gene Expression Master Mix (ThermoFisher) and Taqman Gene Expression Assay primer-probes: GAPDH (Hs02758991_g1), IL6 (Hs00985639_m1), IL8 (Hs00174103_m1), IL-1β (Hs00174097_m1) or CXCL1 (Hs00236937_m1). Each sample was assayed in triplicate on a 384-well plate, and run under standard qRT-PCR cycling conditions on a 7900HT instrument (ABI).

[3] = tested on: primary human neuron-astrocyte co-cultures; assay: Treatment of neurons with spent media from Tat-exposed microglia; format: cell-based; conditions: co-cultures treated 30 h with 200 µl spent media from Tat-exposed microglia, neurotubulin staining
Experimental: as §1
For the purpose of imaging of neurons and quantifying axonal/dendritic lengths, neurons treated as above were fixed with 4% PFA for 15 min and washed with 1x PBS. Cells were permeabilized with 0.1% Triton X-100 for 3 minutes and washed as before. Non-specific sites were blocked with 1X SBS buffer (50 mM EDTA, 0.01% Fish Gelatin, 0.1 g BSA, 1% Horse serum in PBS) for 1 h at room temperature and the cells washed. Cells were stained with anti-neurotubulin antibodies, anti-GFAP antibodies and DAPI to stain neurons, glial cells and nuclei respectively. Neuronal images were captured using a Leica Confocal TCS SP5 microscope (Leica Microsystems, Bannockburn, IL). Axonal/dendritic lengths were quantified using Volocity 6.3 software.

[4] = tested on: interaction of Tat with HSPGs on TZM-bl cells; assay: Inhibition of transcellular transactivation by HSPG competitive antagonists; format: cell-based, human; conditions: TZM-bl cells exposed to Tat-B-WT produced in HeLa cells
Experimental: HeLa cells were seeded in 6-well plates at 7.5 × 10^5 cells per well and transfected with 2.5 μg of Tat expression plasmid DNA (Lipofectamine 3000, Invitrogen). After 6 h, the media was replaced with DMEM/10% FBS. Next day, TZM-bl reporter cells were seeded in a 24-well plate, at 1.5 × 10^5 cells per well. Similarly, C20 microglial cells were seeded in a 12-well plate, at 3 × 10^5 cells per well. After allowing 5–6 h for cell attachment, supernatant from the tat-transfected HeLa cells was collected, which was centrifuged at 500 × g for 10 minutes to remove debris and dead cells. Importantly, at this step and all others involving handling of Tat-containing media, siliconized tubes and tips were used to minimize the adsorption of Tat to surfaces. Tat-transfected HeLa supernatants were used to replace either TZM-bl media (400 μL) or C20 media (800 μL), and the cells incubated for 12 h (C20) or 24 h (TZM-bl).
TZM-bl cell lysates were harvested and stored at −80 °C until luciferase activity was measured. Frozen TZM-bl cell lysates were thawed on ice for 30 minutes, centrifuged at 14,000 × g for 2 minutes, and the protein concentration in the supernatants measured by BCA protein assay. […] The side of the plate was gently tapped and each sample was immediately assayed for luciferase activity using a plate-reader, measuring each sample in Relative Light Units (RLU) (PerkinElmer VICTOR-2).

[5] = tested on: 293T cells; assay: Flow cytometry of labeled CPP uptake; format: cell-based, human; conditions: for effect of soluble heparin on CPP uptake: 293T cells incubated with labeled CPPs and increasing concentrations of soluble heparin; for decrease of CPP uptake at 4 °C compared with 37 °C: 2 μM CPP, 4 °C (10 min pre-incubation) vs 37 °C
Experimental: 293T cells were plated in 12-well plates at 2.5 × 10^5 cells per well, to achieve approximately 70% - 80% confluence by the next day. Thirty minutes before the experiment, cell medium was changed to low-serum DMEM with 1% Pen-Strep. Cells were washed once with PBS, treated with Tat-CPP in low-serum DMEM, and placed in either a tissue-culture incubator (37 °C/5% CO2) or a refrigerator (4 °C)(samples treated at 4 °C were pre-incubated in refrigerator for 10 minutes before CPP treatment). Cells were gently washed twice with PBS (w/10%FBS), then treated with 300 µl of pre-warmed 0.05% trypsin for 5 min, to detach cells and enzymatically digest surface-bound Tat-CPP. Cells were resuspended in 1 ml PBS (with 10% FBS and 2 mM EDTA), and peptide uptake assessed by flow cytometry (FACScalibur). Live cells were gated using forward-scatter and side-scatter ratio, then interrogated >10,000 live-cell events each for fluorescence signal emission at 488 nm. Data was analyzed using FlowJo software v9.3.3 (FlowJo LLC). To adjust for differences in instrument settings and voltage adjustments between experiments we transformed the raw MFI values within each experiment into values proportional to the greatest MFI reading in that particular experiment. Heparinase enzymes were used to pre-treat cells by combination of Heparinase I and III at 17 IU and 1 IU, respectively, per mL of plain DMEM. Cells were treated with enzymes for 2 h in an 37 °C, then washed with PBS and exposed to CPPs as above.

[6] = tested on: PMA-differentiated THP-1 cells; assay: Confocal microscopy of labeled CPP uptake; format: cell-based; conditions: 1 μM peptide, 37 °C, 30 minutes, trypsin to strip surface-bound CPP, fluorescence 488 nm
Experimental: Approximately 4 × 10^5 THP-1 cells were plated in 35 mm MatTek cover dishes in media containing 10 nM PMA to induce adherence and differentiation. After 48 h the media was changed to RPMI/FBS without PMA. Thirty minutes before adding the labeled-CPPs, cell media were replaced with low serum (1% FBS) RPMI. THP-1 cells were treated with CPP for 30 minutes at 37 °C, washed twice with phosphate buffered saline (PBS) in 10% FBS, and incubated with 0.05% trypsin for 10 minutes to digest any surface-bound CPPs. Cells were washed twice with PBS/FBS and then incubated for 20 minutes in Hank’s Buffered Salt Solution (HBSS) with 1X diluted WGA-633 cell membrane stain (Life Technologies). […] Cells were imaged using a Leica SP8 Confocal Microscope and collected fluorescence data from 405 nm (DAPI stained cell nuclei), 488 nm (internalized labeled-CPP signal), and 633 nm (WGA-633 stained plasma membrane) channels as a series of Z-stacks. Analysis of cells with red and green fluorescence was conducted using Image J. The perimeter of each cell was circled using the red stain as a guide. Subsequently, mean intensity of green fluorescence contained in each cell was measured. For each condition, three random fields of view were analyzed.

[7] = tested on: LTR-driven luciferase reporter gene in TZM-bl cells; format: cell-based, human

Tat-B*: Tat-B variant with R7N and K12N mutations and C-terminal myc tag
TNFα protein levels in supernatants of Tat-treated microglia [1]: 19.2 ng/mL
inflammatory cytokine gene transcripts IL-6, IL-8, IL-1β and CXCL1 [2]: higher levels
appearance of neuronal processes (dendrites and axons) [3]: shorter and thinner

Cc1ccc(C(=O)Nc2ccc(S(=O)(=O)O)c3cc(S(=O)(=O)O)cc(S(=O)(=O)O)c23)cc1NC(=O)c1cccc(NC(=O)Nc2cccc(C(=O)Nc3cc(C(=O)Nc4ccc(S(=O)(=O)O)c5cc(S(=O)(=O)O)cc(S(=O)(=O)O)c45)ccc3C)c2)c1 [suramin]
concentration sufficient to diminish transcellular transactivation of extracellular Tat to near background levels [4]: 100 µg/mL

GRKKRRQRRS [CPP-S57, Tat CPP decapeptide (residues 48–57) of HIV-1C, N-terminal HiLyte Fluor 488 tag]
uptake in dose response ([5]; 293T and THP1 cells, increasing concentrations of CPP, flow cytometry): reduced uptake
effect of soluble heparin on CPP uptake [5]: dose-dependent inhibition of uptake
decrease of CPP uptake at 4 °C compared with 37 °C ([5]; 293T cells, flow cytometry): 50% and ~ 50%

GRKKRRQRRR [CPP-R57, Tat CPP decapeptide (residues 48–57) of HIV-1B, N-terminal HiLyte Fluor 488 tag]
internalization of labeled peptide (confocal microscopy) [6]: higher amount of labeled peptide
effect of soluble heparin on CPP uptake [5]: dose-dependent inhibition of uptake
decrease of CPP uptake at 4 °C compared with 37 °C ([5]; 293T cells, flow cytometry): ~ 75%
CPP-R57 uptake relative to CPP-S57 ([5]; 293T cells, flow cytometry, 2 μM peptide, n = 4): 3–4 fold

heparin
concentration sufficient to diminish transcellular transactivation of extracellular Tat to near background levels [4]: 10 µg/mL

B1: Tat-B-49AAA51: Tat-B with triple alanine substitution in residues 49-RKK-51 (protein, UniProt P04608 1-86, looked up, variant R49A K50A K51A)
Protein Tat: MEPVDPRLEPWKHPGSQPKTACTNCYCKKCCFHCQVCFITKALGISYGAAARRQRRRAHQNSQTHQASLSKQPTSQPRGDPTGPKE
transcriptional activity relative to TatB-WT [7]: 10%
decrease of luciferase output upon direct transfection ([7]; TZM-bl cells directly transfected, relative to Tat-B-WT): approximately 90%
